The text below walks through data of ChEMBL document CHEMBL1137564, “Substituted 2-pyrrolinone inhibitors of HIV-1 integrase” (Bioorg Med Chem Lett, 2007).

Test [1] concerns the target T1, Human immunodeficiency virus type 1 integrase (Human immunodeficiency virus 1, UniProt Q7ZJM1). In words: Inhibition of HIV1 integrase 3'-end processing activity.
For test [2], the target named is T1, Human immunodeficiency virus type 1 integrase. In words: Inhibition of HIV1 integrase strand transfer activity.
For test [3] the target is unchanged. In words: Inhibition of HIV1 integrase 3'-end processing activity in presence of Mg2+.
The target is the same in test [4]. Description: Inhibition of HIV1 integrase strand transfer activity in presence of Mg2+.
For test [5], the target named is Human immunodeficiency virus type 1 integrase (Human immunodeficiency virus 1) (UniProt Q7ZJM1). Description: Selectivity for HIV1 integrase strand transfer activity over 3'-end processing activity in presence of Mg2+.
Sequence of Human immunodeficiency virus type 1 integrase (Human immunodeficiency virus 1) (Q7ZJM1 as listed by the source): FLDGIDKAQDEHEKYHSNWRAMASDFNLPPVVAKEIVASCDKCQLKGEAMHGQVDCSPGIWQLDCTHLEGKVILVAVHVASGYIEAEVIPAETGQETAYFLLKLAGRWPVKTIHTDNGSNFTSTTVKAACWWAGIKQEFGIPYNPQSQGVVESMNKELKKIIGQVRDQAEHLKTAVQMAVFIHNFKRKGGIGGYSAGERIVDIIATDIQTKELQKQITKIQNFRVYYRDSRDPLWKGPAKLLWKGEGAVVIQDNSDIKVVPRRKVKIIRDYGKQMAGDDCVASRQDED

T1 sequence (Q7ZJM1 whole entry): as the sequence (Q7ZJM1 as listed by the source) above

For orientation: IC50 means the concentration that inhibits the measured activity by half. On to `O=C(C1=C(O)C(=O)N(c2nc3ccccc3s2)C1c1ccccn1)c1ccc(Cl)cc1` (stereo unspecified), for which the IC50 is over 100 µM in test [1] and 83 µM in test [2].
The corresponding values for `Cc1ccc(C(=O)C2=C(O)C(=O)N(CCCn3ccnc3)C2c2ccc(Cl)cc2)cc1` (stereo unspecified) are 93 µM and 67 µM.
The corresponding values for `COc1ccc(C2C(C(=O)c3ccc(Br)cc3)=C(O)C(=O)N2c2cccc(C(F)(F)F)c2)cc1OC` (stereo unspecified) are 47 µM and 26 µM.
The matching figures for `Cc1ccc(C2C(C(=O)c3ccc(Cl)cc3)=C(O)C(=O)N2CC(=O)O)cc1` (stereo unspecified): 84 µM and 69 µM.
Regarding `CCOc1ccc(C(=O)C2=C(O)C(=O)N(c3nnc(C)s3)C2c2ccc(F)cc2)cc1` (stereo unspecified), the 50% inhibitory concentration (IC50) in test [1] and in test [2] was over 100 µM throughout.
As for `Cc1ccc(C(=O)C2=C(O)C(=O)N(c3nccs3)C2c2ccc(F)cc2)cc1` (stereo unspecified), the IC50 in test [1] is over 100 µM; in test [2], 78 µM.
Take `COc1ccc(C2C(C(=O)c3ccc(Br)cc3)=C(O)C(=O)N2c2cc(C(C)(C)C)on2)cc1OC` (stereo unspecified): the IC50 in test [1] came to 45 µM; in test [2], 43 µM.
The matching figures for `CC(C)(C)c1ccc(C2C(C(=O)c3ccc(F)cc3)=C(O)C(=O)N2c2nncs2)cc1` (stereo unspecified): 64 µM and 43 µM.
The matching figures for `O=C(C1=C(O)C(=O)N(c2nc3ccccc3s2)C1c1cccnc1)c1ccc(Cl)cc1` (stereo unspecified): over 100 µM and 90 µM.
Turning to `Cc1ccc(C(=O)C2=C(O)C(=O)N(c3ncc(S(=O)(=O)c4ccc([N+](=O)[O-])cc4)s3)C2c2cccc(Cl)c2)cc1` (stereo unspecified), the IC50 in test [1] is 27 µM; in test [3] it was over 100 µM; in test [2], 8 µM; in test [4], 6.1 µM.
As to `Cc1ccc(C(=O)C2=C(O)C(=O)N(c3nccs3)C2c2ccc(Cl)cc2)cc1` (stereo unspecified), the values for the IC50 in test [1] and in test [2] were 56 µM and 39 µM, respectively.
Turning to `COc1ccc(C(=O)C2=C(O)C(=O)N(CCc3ccccc3)C2c2ccc(Br)cc2)cc1OC` (stereo unspecified), the IC50 in test [1] came to 60 µM; in test [2], 42 µM.
The corresponding values for `CCOc1ccc(C(=O)C2=C(O)C(=O)N(c3nccs3)C2c2ccc(O)c(OC)c2)cc1` (stereo unspecified) are 57 µM and 30 µM.
The matching figures for `CCOC(=O)c1sc(N2C(=O)C(O)=C(C(=O)c3ccccc3)C2c2ccc(F)cc2)nc1C` (stereo unspecified): 44 µM and 21 µM.
Consider `COc1ccc(OC)c(C(=O)C2=C(O)C(=O)N(CCCCCC(=O)O)C2c2ccc(Cl)cc2)c1` (stereo unspecified), for which the IC50 in test [1] is 88 µM; in test [3] it was over 100 µM; in test [2], 40 µM; in test [4] it was 10 µM. Moreover, the Ratio IC50 in test [5] is over 10.
Turning to `O=C(C1=C(O)C(=O)N(c2nc3ccccc3s2)C1c1ccc2c(c1)OCO2)c1ccccc1` (stereo unspecified), the IC50 was 57 µM in test [1] and 21 µM in test [2].
The corresponding values for `CCOC(=O)c1sc(N2C(=O)C(O)=C(C(=O)c3ccc(C)cc3)C2c2ccc(F)cc2)nc1C` (stereo unspecified) are over 100 µM and 33 µM.
Take `CCOc1ccc(C(=O)C2=C(O)C(=O)N(c3nccs3)C2c2ccc(OC)cc2)cc1` (stereo unspecified): the half-maximal inhibitory concentration (IC50) in test [1] was over 100 µM; in test [2], 90 µM.
